target: Dual specificity protein phosphatase 1 (Homo sapiens) (UniProt P28562); test: inhibitors of DUSP1 phosphatase activity – biochemical, DiFMUP, fluorescence, selectivity assay for VHR1 inhibitor project, SAR follow-up (AID 2083); details: recombinant MKP-1, DiFMUP fluorescence
Sequence (P28562 whole entry, looked up): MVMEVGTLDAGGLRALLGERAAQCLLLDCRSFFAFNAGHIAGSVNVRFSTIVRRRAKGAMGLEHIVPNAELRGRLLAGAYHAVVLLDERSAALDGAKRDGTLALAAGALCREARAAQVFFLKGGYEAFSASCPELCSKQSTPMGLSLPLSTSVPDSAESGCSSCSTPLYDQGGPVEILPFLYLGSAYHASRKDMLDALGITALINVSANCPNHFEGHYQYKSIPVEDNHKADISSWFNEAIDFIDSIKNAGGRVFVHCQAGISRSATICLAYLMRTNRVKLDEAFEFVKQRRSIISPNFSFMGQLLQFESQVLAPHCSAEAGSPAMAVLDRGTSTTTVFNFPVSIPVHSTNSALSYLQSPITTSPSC

IC50, active:
O=C1/C(=C/c2cn(-c3ccccc3)nc2-c2ccc(OCc3ccccc3F)cc2)SC(=S)N1CCS(=O)(=O)O 0.52 µM
O=C1/C(=C/c2cn(-c3ccccc3)nc2-c2ccc(OCc3ccccc3)cc2)SC(=S)N1CCS(=O)(=O)O 0.78 µM
O=C1/C(=C/c2cn(-c3ccccc3)nc2-c2ccc(S(=O)(=O)N3CCCCC3)cc2)SC(=S)N1CCS(=O)(=O)O 2.8 µM
O=C1/C(=C/c2cn(-c3ccccc3)nc2-c2ccc(OCc3ccc(Cl)cc3)cc2)SC(=S)N1CCS(=O)(=O)O 0.46 µM
O=C1/C(=C/c2cn(-c3ccccc3)nc2-c2ccc(OCc3ccccc3Cl)cc2)SC(=S)N1CCS(=O)(=O)O 0.47 µM

From PubChem BioAssay AID2083 (Sanford-Burnham Center for Chemical Genomics, 2009)
